Experiments:
[1] = test system: Human neuroblastoma cells SH-SY5Y; assay: MTT cell viability assay, SH-SY5Y; type: cell-based; settings: Homo sapiens, 24 h, read-out: IC50 (MTT) ± SEM
Source text: Human neuroblastoma cells SH-SY5Y and mouse microglial cells SIM-A9 were used to evaluate cell viability, intracellular RONS, and malondialdehyde (MDA; CAS No. 542–78-9).
SH-SY5y cells were cultivated in Dulbecco's modified Eagle's medium (DMEM; Biosera, Nuaille, France) supplemented with 10% fetal bovine serum (Biosera) and 1% penicillin-streptomycin antibiotic solution (Sigma-Aldrich, St. Louis, MO, USA). The culture medium for SIM-A9 cells was further supplemented with donor horse serum (Biosera). The cells were incubated at 37 °C in a CO2 incubator (BINDER CO2 incubator CB 160, Tuttlingen, Germany) and routinely passaged by trypsinization at 75 –85% confluence.
Colorimetric Cell Viability Assay
The toxicological indices IC 50 used in the present study were measured utilizing 3-(4,5-dimethylthiazol-2-yl)-2,5-diphenyl-tetrazolium bromide (MTT) reduction assay after (1 picture or pasted object on this page, not shown here)
24 h incubation with tested compounds. […]
incubation, the cultivation medium containing serially diluted substances was aspirated and replaced with a fresh medium containing MTT at a concentration of 0.5 mg/mL and subsequently incubated at 37 °C for 1 h. […] Cell viability was assessed spectrophotometrically by the amount of formazan produced. Absorbance was measured at 570 nm with 650 nm reference wavelength on Spark (Tecan Group Ltd, Switzerland). […]

human CYP2D6 = target: T1, human CYP2D6 (Homo sapiens, UniProt P10635); assay: Inhibition of human CYP450 isoforms (Vivid kits); type: in vitro ADME; settings: recombinant CYP2D6, 10 min
T1 construct: purchased Thermo Fisher Scientific
Protocol: nonlinear regression analysis using GraphPad Prism 9.0 software. All values are expressed as […]
Table S10. The viability of cells. neurotoxicity immuntoxicity
The results (viability values) are provided as a percentage of live cells with respect to DMSO (control sample)
Table S11. The viability of cells. […]
Inhibition of human CYP450 isoforms
The inhibitory potential of compound 6 toward human CYP1A2, CYP2C9, CYP2D6, and CYP3A4 enzymes was assessed using Vivid® CYP450 Screening Kits (Thermo Fisher Scientific, Waltham, MA, USA). A six -point concentration gradient of compound 6 was prepared in reaction buffer and pipetted onto a black 96 -well plate (Brand, Wertheim Germany) and then a mixture of the respective recombinant CYP isoenzyme and the NADPH regeneration system was added, following the manufacturer’s instructions. The DMSO concentration was maintained at 0.5% in all reaction v ariants including controls. […]
adding NADP+ and the respective CYP isoenzyme substrate. After a further 10-minute incubation at 37°C, the formation of the reaction product was measured as fluorescence using a SPARK microplate reader (TECAN, Männedorf, Switzerland). The half-maximal inhibitory concentration (IC50) values were calculated by fitting the data to sigmoidal Hill curves using GraphPad Prism version 10.1.2. […]

BuChE = settings: 1 or 5 µM compound (printed '1 or 5 M'), vs DMSO

T1 sequence (P10635 whole entry, canonical isoform): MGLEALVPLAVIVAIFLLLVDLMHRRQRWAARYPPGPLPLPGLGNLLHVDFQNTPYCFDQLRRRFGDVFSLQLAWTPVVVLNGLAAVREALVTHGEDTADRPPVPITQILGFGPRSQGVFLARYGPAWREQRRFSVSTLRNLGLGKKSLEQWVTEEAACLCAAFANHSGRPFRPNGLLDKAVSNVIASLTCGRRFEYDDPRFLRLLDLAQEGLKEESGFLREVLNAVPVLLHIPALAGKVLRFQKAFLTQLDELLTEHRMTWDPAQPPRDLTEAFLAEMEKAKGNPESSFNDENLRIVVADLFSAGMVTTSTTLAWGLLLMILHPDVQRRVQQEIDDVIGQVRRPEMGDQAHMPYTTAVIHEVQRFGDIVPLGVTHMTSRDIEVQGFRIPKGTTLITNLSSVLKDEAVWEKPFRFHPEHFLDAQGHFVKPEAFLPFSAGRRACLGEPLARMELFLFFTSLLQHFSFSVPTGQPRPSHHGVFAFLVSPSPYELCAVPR

SMILES: O[C@H](CNCC1CC1)[C@H](Cc1ccccc1)NC1c2ccccc2-c2ccccc21 [Compound 6]
- IC50 [1]: 3.38 ± 0.04 µM
- CYP2D6 inhibition (human CYP2D6): CYP2D6 inhibitor
- Melting temperature (Tm) of BuChE (BuChE): increased Tm of BuChE

From PMC11796312, “Multifunctional, Fluorene‐Based Modulator of Cholinergic and GABAergic Neurotransmission as a Novel Drug Candidate for Palliative Treatment of Alzheimer's Disease” (Angewandte Chemie (International Ed. in English), 2024)
